The source of these data is patent US9585888B2, “Reduction of toxicity of multi-targeting antifolates” (Isofol Medical AB, priority 2003, dated 2017).

One series relates to tumor growth. The following applies: cited from earlier work.
Series [1] has as its system experimental adenocarcinoma. Here is the method: Eight inbred female Wistar rats were during general anesthesia inoculated in the central liver lobe with 0.1 ml of 1.0 million viable tumor cells of an experimental adenocarcinoma. On day 5 the animals were relaparotomized during general anesthesia, the body weight was recorded and the size of the solitary liver tumor was measured with vernier calipers.
The animals were randomly allocated to two groups. Group 1 received intravenous injections of ALIMTA (pemetrexed) 0.01 mg/kg and group 2 received 0.1 mg/kg of ALIMTA. Both groups received 15 mg/kg of R-5,10-CH2FH4 immediately following the injections of ALIMTA. Therapy was administered through intravenous injections via the tail vein on days 6-8 and days 11-12. On day 13 all animals were sacrificed by an overdose of anesthesia.
The body weights were recorded and the size of the liver tumors was measured. The wet weights of the excised liver tumor and spleen were recorded.

For another series, the system named is TS. The experiment in a line: TS expression levels after Tomudex intravenous bolus injection in colorectal cancer patients. The format is in vivo. The following applies: multi-targeting antifolate only. Here is the method:
In this experiment, the effect of a multi-targeting antifolate, i.e. Tomudex (raltitrexed), was shown.
Nine colorectal cancer patients were included in the study, and the expression levels were measured in actin, which is a protein serving as an important structural molecule for the cytoskeletons of many eukaryotic cells.

Series [2] can be described thus: Tissue concentration of methylene-THF in tumor biopsy after i.v. bolus injection of folates. The following applies: tumor biopsy at 20 minutes after i.v. bolus injection; compared with leucovorin. The format is in vivo, patients. On the procedure: The level of increase of tissue concentration of methylene-THF after administration of leucovorin and methylene-THF, respectively, has been compared. Patients operated upon due to liver metastases were given a dose of folates. Biopses were taken from the tumor before i.v. bolus injection of leucovorin on methylenetetrahydrofolate. At 20 minutes a new tumor biopsy was taken and the concentration of MTHF was assayed.

Like-named read-outs stand apart in the source and are kept apart here.

On to `O=c1[nH]cc(F)c(=O)[nH]1` [5-FU, 5-fluorouracil], for which the tumor growth suppression result is recorded as “approximately 80%” with tumor growth (5-FU administered to folate depleted animals 1 hr after folinic acid) and “approximately 50%” with tumor growth (control mice). Also, the “effect on tumor growth” value in the series on tumor growth (folinic acid administered 12 hr before 5-FU) is given as “tumor growth stimulation”. In the case of `Nc1nc2[nH]cc(CCc3ccc(C(=O)N[C@@H](CCC(=O)O)C(=O)O)cc3)c2c(=O)[nH]1` [ALIMTA, pemetrexed], the extrahepatic tumor growth result in series [1] (ALIMTA 0.01 mg/kg i.v. + 15 mg/kg R-5,10-CH2FH4 (group 1), day 13) is listed as “extrahepatic tumor growth in the abdominal cavity as metastases to the lungs”. Also, the extrahepatic metastases entry in series [1] (highest Alimta dose (0.1 mg/kg i.v.) + 15 mg/kg R-5,10-CH2FH4 (group 2)) is “no extrahepatic metastases were recorded”. With `Cc1nc2ccc(CN(C)c3ccc(C(=O)N[C@@H](CCC(=O)O)C(=O)O)s3)cc2c(=O)[nH]1` [Tomudex, raltitrexed], the clinical toxicity entry in the series with TS (clinical findings) is given as “severe toxic effects from the bowel made it impossible to continue the treatment”. Besides, the “effect on normal mucosa versus tumor (TS expression levels)” value in the series with TS (intravenous bolus injection) is given as “the normal mucosa is actually more adversely affected than the tumor”. Turning to `Nc1nc2c(c(=O)[nH]1)N(C=O)C(CNc1ccc(C(=O)N[C@@H](CCC(=O)O)C(=O)O)cc1)CN2` (stereo partly drawn) [folinic acid], the “effect on tumor growth” value with tumor growth (folinic acid administered without 5-FU) was “pronounced growth stimulation”. In the case of `Nc1nc2c(c(=O)[nH]1)N1CN(c3ccc(C(=O)N[C@@H](CCC(=O)O)C(=O)O)cc3)CC1CN2` (stereo partly drawn) [methylene-THF, 5,10-methylene-tetrahydrofolate], the “tissue concentration of methylene-THF in tumor” value in series [2] was “greater tissue concentration of methylene-THF than leucovorin”.
